According to patent publication US8293751B2, “1,2,3-trisubstituted aryl and heteroaryl derivatives as modulators of metabolism and the prophylaxis and treatment of disorders related thereto such as diabetes and hyperglycemia” (Arena Pharmaceuticals, Inc., priority 2003, dated 2012):
Entries after “also recorded” stand apart in the source; their conditions may differ.

Assays:
RUP3 = target: T1, RUP3 (Homo sapiens, UniProt Q8TDV5); test: 96-Well Cyclic AMP Membrane Assay for RUP3 (Membrane Cyclase Assay); assay type: biochemical; details: RUP3 membranes, cAMP Flashplate
T1 construct: seen in the listing only (N); seen in the listing only (C); expressed in transfected cells
T1 sequence (Q8TDV5 with tags, fused parts or gaps): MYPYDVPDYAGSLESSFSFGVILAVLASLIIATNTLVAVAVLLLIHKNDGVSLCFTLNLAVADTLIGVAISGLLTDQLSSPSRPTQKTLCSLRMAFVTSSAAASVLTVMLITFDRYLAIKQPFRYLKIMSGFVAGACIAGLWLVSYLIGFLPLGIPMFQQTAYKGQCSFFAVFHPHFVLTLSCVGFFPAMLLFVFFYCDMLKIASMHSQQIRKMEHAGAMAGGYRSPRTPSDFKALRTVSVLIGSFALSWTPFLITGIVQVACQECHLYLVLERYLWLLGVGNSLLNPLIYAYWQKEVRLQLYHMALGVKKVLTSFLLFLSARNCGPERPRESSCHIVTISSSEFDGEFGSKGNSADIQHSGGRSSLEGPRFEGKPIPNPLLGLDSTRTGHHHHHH
Protocol: 96-Well Cyclic AMP Membrane Assay for RUP3
Binding Buffer—filter through […] Nalgene filter and keep in refrigerator. All buffers and membranes should be kept cold (in ice bucket) while performing assay. • 20 mM Hepes, pH7.4 • 1 mM MgCl2 • 100 mM NaCl • 2× Regeneration Buffer (make in binding buffer): • 20 mM Phosphocreatine (1.02 gm/200 ml binding buffer) • 20 units Creatine phosphokinase (4 mg/200 ml) • 20 uM GTP (make up 10.46 mg/ml in binding buffer and add 200 ul/200 ml) • 0.2 mM ATP (22.04 mg/200 ml) • […] IBMX (44.4 mg IBMX dissolved in 1 ml 100% DMSO first and then add the entire amount to 200 ml of buffer).
Regeneration buffer can be aliquotted into 40-45 ml portions (in 50 ml sterile tubes) and kept frozen for up to 2 months. Simply put the tube in a beaker with room temperature water to thaw out the regeneration buffer on the day of the assay. […]
IC50s or EC50s are done in triplicate. […] The membranes are kept in ice all the time, and a polytron (Brinkmann polytron, model #PT-3100) is used (setting 6-7, for 15-20 seconds) to obtain a homogeneous membrane suspension.) Protein concentration is determined by Bradford protein assay kit using instructions given in the kit, using the standard supplied with the kit as a reference. […]

isolated rat islets = test: Stimulation of insulin secretion in isolated rat islets; assay type: cell-based; details: 10 μM concentration, enhancement comparable to 25 nM GLP-1, FIG. 4D
Protocol: E. Stimulation of Insulin Secretion in Isolated Rat Islets
As with HIT-T15 cells, it is known that stimulation of cAMP in isolated rat islets causes an increase in insulin secretion when the glucose concentration in the culture media is changed from 60 mg/dl to 300 mg/dl. RUP3 is an endogenously expressed GPCR in the insulin-producing cells of rat islets. Thus, RUP3 ligands can also be tested for their ability to stimulate GSIS in rat islet cultures. This assay is performed as follows: • A. Select 75-150 islet equivalents (IEQ) for each assay condition using a dissecting microscope. Incubate overnight in low-glucose culture medium. (Optional.) • B. Divide the islets evenly into triplicate samples of 25-40 islet equivalents per sample. Transfer to 40 μm mesh sterile cell strainers in wells of a 6-well plate with 5 ml of low (60 mg/dl) glucose Krebs-Ringers Buffer (KRB) assay medium. • C. Incubate 30 minutes (1 hour if overnight step skipped) at 37° C. and 5% CO2. Save the supernatants if a positive control for the RIA is desired. • D. Move strainers with islets to new wells with 5 ml/well low glucose KRB. […] Freeze and store at <−20° C. until insulin concentrations can be determined. • I. Insulin determinations are done as above, or by Linco Labs as a custom service, using their rat insulin RIA (Cat. #RI-13K). […]

[1] = test system: db mice (C57BL/KsOlahsd-Leprdb, diabetic); test: Acute response of db mice to RUP3 agonist (blood glucose); assay type: in vivo; details: male db mice; 1 μg/kg, intraperitoneally; FIG. 5B
Protocol: B. […] Male db mice (C57BL/KsOlahsd-Leprdb, diabetic, Harlan) at age of 10 weeks were randomly grouped (n=6) to receive vehicle (oral gavage), Compound B70 (60 mg/kg, oral gavage), or Ex-4 (1 μg/kg, intraperitoneally). After compound administration, food was removed and blood glucose levels were determined at indicated times as shown in FIG. 5B. Reduction in blood glucose at each time point was expressed as percentage of original glucose levels, averaged from six animals for each group.

HIT-T15 cells [2] = test: Stimulation of insulin secretion in HIT-T15 cells; assay type: cell-based, hamster; details: HIT-T15 cells exposed to 15 mM glucose; compared with forskolin; FIG. 4C
Protocol: D. Stimulation of Insulin Secretion in HIT-T15 Cells
It is known that stimulation of cAMP in HIT-T15 cells causes an increase in insulin secretion when the glucose concentration in the culture media is changed from 3 mM to 15 mM. Thus, RUP3 ligands can also be tested for their ability to stimulate glucose-dependent insulin secretion (GSIS) in HIT-T15 cells. In this assay, 30,000 cells/well in a 12-well plate are incubated in culture media containing 3 mM glucose and no serum for 2 hours. The media is then changed; wells receive media containing either 3 mM or 15 mM glucose, and in both cases the media contains either vehicle (DMSO) or RUP3 ligand at a concentration of interest. Some wells receive media containing 1 uM forskolin as a positive control. All conditions are tested in triplicate. Cells are incubated for 30 minutes, and the amount of insulin secreted into the media is determined by ELISA, using a kit from either Peninsula Laboratories (Cat #ELIS-7536) or Crystal Chem Inc. (Cat #90060).
In the first of these, RUP3 agonists are used to stimulate HIT-T15 cells, which express RUP3 at significant levels, as indicated in the Northern blot shown in FIG. 4A.

HIT-T15 cells [3] = test: Stimulation of cAMP in HIT-T15 cells; assay type: cell-based, hamster; details: compared with adenyl cyclase activator forskolin, FIG. 4B
Protocol: C. Stimulation of cAMP in HIT-T15 Cells
HIT-T15 (ATCC CRL#1777) is an immortalized hamster insulin-producing cell line. These cells express RUP3 and therefore can be used to assess the ability of RUP3 ligands to stimulate or inhibit cAMP accumulation via its endogenously expressed receptor. In this assay, cells are grown to 80% confluence and then distributed into a 96-well Flashplate (50,000 cells/well) for detection of cAMP via a “cAMP Flashplate Assay” (NEN, Cat #SMP004). Briefly, cells are placed into anti-cAMP antibody-coated wells that contain either vehicle, the test ligand(s) at a concentration of interest, or 1 uM forskolin. The latter is a direct activator of adenylyl cyclase and serves as a positive control for stimulation of cAMP in HIT-T15 cells. All conditions are tested in triplicate. After ail hour incubation to allow for stimulation of cAMP, a Detection Mix containing ^125I-cAMP is added to each well and the plate is allowed to incubate for another 1 hour. The wells are then aspirated to remove unbound ^125I-cAMP. Bound ^125I-cAMP is detected using a Wallac Microbeta Counter. The amount of cAMP in each sample is determined by comparison to a standard curve, obtained by placing known concentrations of cAMP in some wells on the plate. […]

Compound | IC50 (RUP3) [nM] | glucose-dependent insulin release (isolated rat islets) | other results
CCCC1CCN(c2ncnc(Oc3ccc(C(=O)c4ccc(F)cc4)cc3)c2[N+](=O)[O-])CC1 [Compound A124, (4-Fluoro-phenyl)-{4-[5-nitro-6-(4-propyl-piperidin-1-yl)-pyrimidin-4-yloxy]-phenyl}-methanone] | 241 |  | 
CCOC(=O)C1CCN(c2ncnc(Oc3ccc(C4NC(=O)NC4=O)cc3)c2[N+](=O)[O-])CC1 (stereo not shown) [Compound A48, 1-{6-[4-(2,5-Dioxo-imidazolidin-4-yl)-phenoxy]-5-nitro-pyrimidin-4-yl}-piperidine-4-carboxylic acid ethyl ester] |  | enhanced glucose-dependent insulin release compared to control | 
extendin-4 [Ex-4, reference compound] |  |  | blood glucose levels compared to vehicle control [1]: significantly reduces glucose levels compared to vehicle control
CCOC(=O)C1CCN(c2ncnc(Oc3ccc(CCC(C)=O)cc3)c2[N+](=O)[O-])CC1 [Compound A51, 1-{5-Nitro-6-[4-(3-oxo-butyl)-phenoxy]-pyrimidin-4-yl}-piperidine-4-carboxylic acid ethyl ester] |  | enhanced glucose-dependent insulin release compared to control | 
CS(=O)(=O)c1ccc(Nc2ncnc(N3CCC(Sc4ccccc4)CC3)c2[N+](=O)[O-])cc1 [Compound B84, (4-Methanesulfonyl-phenyl)-[5-nitro-6-(4-phenylsulfanyl-piperidin-1-yl)-pyrimidin-4-yl]-amine] | 50 |  | insulin secretion in HIT cells (HIT-T15 cells [2]): stimulates insulin secretion in HIT cells exposed to 15 mM glucose, once again at a level comparable to that seen with the adenyl cyclas activator forskolin; also recorded: stimulates insulin secretion in HIT cells exposed to 15 mM glucose, at a level comparable to that seen with the adenylcyclase activator forskolin; cAMP production in HIT cells (HIT-T15 cells [3]): stimulates cAMP production in HIT cells, at a level comparable to that seen with the adenyl cyclase activator forskolin
